Data published in patent publication US10245275B2 (ViiV HEALTHCARE UK (NO.4) LIMITED, priority 2014, dated 2019).
Read-outs that look alike come from different tables or passages of the source.

Tests used:
[1] = tested on: HIV-1 92UG029 (clade A virus); assay: HIV cell culture assay, 92UG029 Gag/Pr recombinant virus in MT-2 cells; type: cell-based; conditions: for fold less potent than Compound 2 vs 92UG029: relative to Compound 2
Description: MT-2 cells and 293T cells were obtained from the NIH AIDS Research and Reference Reagent Program. MT-2 cells were propagated in RPMI 1640 media supplemented with 10% heat-inactivated fetal bovine serum, […]. The 293T cells were propagated in DMEM media supplemented with 10% heat-inactivated fetal bovine serum (FBS), 100 units/mL penicillin G and 100 μg/mL streptomycin. The proviral DNA clone of NL4-3 was obtained from the NIH AIDS Research and Reference Reagent Program. A recombinant NL4-3 virus, in which a section of the nef gene from NL4-3 was replaced with the Renilla luciferase gene, was used as a reference virus. In addition, residue Gag P373 was converted to P373S. Briefly, the recombinant virus was prepared by transfection of the altered proviral clone of NL4-3. Transfections were performed in 293T cells using LipofectAMINE PLUS from Invitrogen (Carlsbad, Calif.), according to manufacturer's instruction. The virus was titered in MT-2 cells using luciferase enzyme activity as a marker. Luciferase was quantitated using the Dual Luciferase kit from Promega (Madison, Wis.), with modifications to the manufacturer's protocol. The diluted Passive Lysis solution was pre-mixed with the re-suspended Luciferase Assay Reagent and the re-suspended Stop & Glo Substrate (2:1:1 ratio). Fifty (50) μL of the mixture was added to each aspirated well on assay plates and luciferase activity was measured immediately on a Wallac TriLux (Perkin-Elmer). Antiviral activities of inhibitors toward the recombinant virus were quantified by measuring luciferase activity in cells infected for 4-5 days with NLRluc recombinants in the presence serial dilutions of the inhibitor.
Determination of EC50 for WT, EC50 for A364V, and EC50 for 92UG029 viruses:
HIV-1 92UG029 was obtained from the NIH (Catalog Number: 1650). This is a subtype A Gag and subtype A Env, X4 (SI) virus from Uganda. Reference: WHO Network for HIV Isolation and Characterization. AIDS Res Hum Retroviruses 10:1359, 1994. The Gag/Pr region from 92UG029 was used to replace that in an HIV-1 NL4-3 virus expressing Renilla luciferase gene.
Both recombinant viruses were used as described above in the HIV cell culture assay for the NL4-3 virus.

[2] = tested on: WT (wild-type HIV virus; recombinant NL4-3 virus); assay: microbe, parasite or virus in culture; type: cell-based, HIV-1; conditions: for potency vs. WT (in words): comparative data
Outline: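 MT-2 cells infected 4-5 days with NL4-3 carrying Renilla luciferase in place of part of nef (Gag P373S), virus made by 293T transfection, with serial inhibitor dilutions. Antiviral activity read as luciferase activity by a modified dual-luciferase read-out.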

[3] = tested on: HIV-1 NL4-3 gag A364V virus; assay: microbe, parasite or virus in culture; type: cell-based; conditions: for fold less potent than Compound 2 vs A364V: relative to Compound 2
Outline: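 Recombinant NL4-3 reporter virus with Renilla luciferase replacing part of nef, made by transfection of 293T cells. MT-2 cells infected for 4-5 days with serial inhibitor dilutions; antiviral activity quantified by luciferase activity.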

[4] = Rat PO pharmacokinetic study; type: in vivo; conditions: male, Sprague-Dawley, plasma, oral dose of 5 mg/kg, PEG-400/ethanol (90/10) solution, fasted rats
Description: Rat Pharmacokinetic Studies:
For the PO pharmacokinetic studies of the compounds in rats, the compounds were each dissolved in PEG-400/ethanol (90/10) as a solution.
Rat. Male Sprague-Dawley rats (300-350 g, Hilltop Lab Animals, Inc., Scottsdale, Pa.) with cannulas implanted in the jugular vein were used. The rats were fasted overnight in the PO pharmacokinetic studies. Blood samples of 0.3 mL were collected from the jugular vein in EDTA-containing microtainer tubes (Becton Dickinson, Franklin Lakes, N.J.), and centrifuged to separate plasma.
In the PO study of the tested compounds, the rats (n=3) received an oral dose of 5 mg/kg of the indicated compound. Serial blood samples were collected before dosing and 15, 30, 45, 60, 120, 240, 360, 480, and 1440 min after dosing.
Quantitation of Compounds in Plasma. Aliquots of plasma samples from rat, studies were prepared for analysis by precipitating plasma proteins with two volumes of acetonitrile containing an internal standard of a similar compound. The resulting supernates were separated from the precipitated proteins by centrifugation for 10 minutes and transferred to autosampler vials. Samples were either prepared manually, or with the use of the Tomtec automated liquid handler. An aliquot of 5 μL was injected for analysis.
The HPLC system consisted of two Shimadzu LC10AD pumps (Columbia, Md.), a Shimadzu SIL-HTC autosampler (Columbia, Md.), and a Hewlett Packard Series 1100 column compartment (Palo Alto, Calif.). The column was a YMC Pro C18 (2.0×50 mm, 3 μm particles, Waters Co., Milford, Mass.), maintained at 60° C. and a flow rate of 0.3 ml/min. The mobile phase consisted of 10 mM ammonium formate and 0.1% formic acid in water (A) and 100% 10 mM ammonium formate and 0.1% formic acid in methanol (B). The initial mobile phase composition was 95% A. After sample injection, the mobile phase was changed to 15% A/85% B over 2 minutes and held at that composition for an additional 1 minute. The mobile phase was then returned to initial conditions and the column re-equilibrated for 1 minute. Total analysis time was 4 minutes.
The HPLC was interfaced to a Micromass Quattro LC. Ultra high purity nitrogen was used as the nebulizing and desolvation gas at flow rates of 100 L/hr for nebulization and 1100 L/hr for desolvation. The desolvation temperature was 300° C. and the source temperature was 150° C. Data acquisition utilized selected reaction monitoring (SRM). Ions representing the (M+H)^+ species for the compound and the internal standard were selected in MS1 and collisionally dissociated with argon at a pressure of 2×10^−3 torr to form specific product ions which were subsequently monitored by MS2.

[5] = Human immunodeficiency virus 1, MT2, read-out: 92UG029A Clade T332S/V362I/V370A (EC50, uM)
[6] = Human immunodeficiency virus 1, NL43, MT2, read-out: WT (EC50, uM), Table 1 regular screen, class symbol
[7] = Human immunodeficiency virus 1, NL43, MT2, read-out: A364V (EC50, uM), Table 1 regular screen, class symbol
[8] = Human immunodeficiency virus 1, MT2, read-out: EC50 92UG029 (μM)
[9] = Human immunodeficiency virus 1, NL43, MT2, read-out: EC50 WT (μM), Table 2, 3× higher viral input
[10] = Human immunodeficiency virus 1, NL43, MT2, read-out: EC50 A364V (μM), Table 2, 3× higher viral input
[11] = Human immunodeficiency virus 1, NL43, MT2, read-out: WT (EC50, uM), Table 1 regular screen, MT-2 cells, luciferase readout
[12] = Human immunodeficiency virus 1, NL43, MT2, read-out: A364V (EC50, uM), Table 1 regular screen, MT-2 cells, luciferase readout

C=C(C)[C@@H]1CC[C@]2(NCC[C@]3(O)CC[C@](C)(O)CC3)CC[C@]3(C)[C@H](CC[C@@H]4[C@@]5(C)CC=C(C6=CC[C@@](CF)(C(=O)O)CC6)C(C)(C)[C@@H]5CC[C@]43C)[C@@H]12 [Example 2-17, (R)-4-((1R,3aS,5aR,5bR,7aR,11aS,11bR,13aR,13bR)-3a-((2-((trans)-1,4-dihydroxy-4-methylcyclohexyl)ethyl)amino)-5a,5b,8,8,11a-pentamethyl-1-(prop-1-en-2-yl)-2,3,3a,4,5,5a,5b,6,7,7a,8,11,11a,11b,12,13,13a,13b-octadecahydro-1H-cyclopenta[a]chrysen-9-yl)-1-(fluoromethyl)cyclohex-3-enecarboxylic acid]
EC50 [1, 5]: 0.00937 µM
EC50 [2, 6]: < 0.05 µM
EC50 [3, 7]: < 0.05 µM

C=C(C)[C@@H]1CC[C@]2(NCCN3CCS(=O)(=O)CC3)CC[C@]3(C)[C@H](CC[C@@H]4[C@@]5(C)CC=C(C6=CCC(C)(C(=O)O)CC6)C(C)(C)[C@@H]5CC[C@]43C)[C@@H]12 (stereo partly shown) [Compound B, reference compound]
EC50 [1, 8]: 0.03 µM
fold less potent than Compound 2 vs 92UG029 [1]: 6 fold
EC50 [2, 9]: 0.002 µM
potency vs. WT (in words) [2]: comparable potency
AUC [4]: 6.46 µM·h
EC50 [3, 10]: 1.3 µM
fold less potent than Compound 2 vs A364V [3]: 6 fold

C=C(C)[C@@H]1CC[C@]2(NCCN3CCC(S(C)(=O)=O)CC3)CC[C@]3(C)[C@H](CC[C@@H]4[C@@]5(C)CC=C(C6=CC[C@](CF)(C(=O)O)CC6)C(C)(C)[C@@H]5CC[C@]43C)[C@@H]12 [Example 1a, (S)-1-(fluoromethyl)-4-((1R,3aS,5aR,5bR,7aR,11aS,11bR,13aR,13bR)-5a,5b,8,8,11a-pentamethyl-3a-((2-(4-(methylsulfonyl)piperidin-1-yl)ethyl)amino)-1-(prop-1-en-2-yl)-2,3,3a,4,5,5a,5b,6,7,7a,8,11,11a,11b,12,13,13a,13b-octadecahydro-1H-cyclopenta[a]chrysen-9-yl)cyclohex-3-enecarboxylic acid]
EC50 [1, 5]: 0.00532 µM
EC50 [2, 11]: 0.00225 µM
EC50 [3, 12]: 0.109 µM

C=C(C)[C@@H]1CC[C@]2(NCCN3CCC(S(C)(=O)=O)CC3)CC[C@]3(C)[C@H](CC[C@@H]4[C@@]5(C)CC=C(C6=CC[C@@](CF)(C(=O)O)CC6)C(C)(C)[C@@H]5CC[C@]43C)[C@@H]12 [Example 1b, (R)-1-(fluoromethyl)-4-((1R,3aS,5aR,5bR,7aR,11aS,11bR,13aR,13bR)-5a,5b, 8,8,11a-pentamethyl-3a-((2-(4-(methylsulfonyl)piperidin-1-yl)ethyl)amino)-1-(prop-1-en-2-yl)-2,3,3a,4,5,5a,5b,6,7,7a,8,11,11a,11 b,12,13,13a,13b-octadecahydro-1H-cyclopenta[a]chrysen-9-yl)cyclohex-3-enecarboxylic acid]
EC50 [1, 5]: 0.00348 µM
EC50 [2, 11]: 0.00193 µM
EC50 [3, 12]: 0.176 µM

C=C(C)[C@@H]1CC[C@]2(NCCN3CCC(S(C)(=O)=O)CC3)CC[C@]3(C)[C@H](CC[C@@H]4[C@@]5(C)CC=C(C6=CCC(F)(C(=O)O)CC6)C(C)(C)[C@@H]5CC[C@]43C)[C@@H]12 (stereo partly shown) [Compound A, reference compound]
EC50 [1, 8]: 0.61 µM
fold less potent than Compound 2 vs 92UG029 [1]: > 100 fold
EC50 [2, 9]: 0.004 µM
potency vs. WT (in words) [2]: good potency
EC50 [3, 10]: 1.5 µM
fold less potent than Compound 2 vs A364V [3]: about 7 fold

C=C(C)[C@@H]1CC[C@]2(NCCN3CCC(S(C)(=O)=O)CC3)CC[C@]3(C)[C@H](CC[C@@H]4[C@@]5(C)CC=C(C6=CCC(CF)(C(=O)O)CC6)C(C)(C)[C@@H]5CC[C@]43C)[C@@H]12 (mixture of isomers) [Example 1, 1-(fluoromethyl)-4-((1R,3aS,5aR,5bR,7aR,11aS,11bR,13aR,13bR)-5a,5b,8,8,11a-pentamethyl-3a-((2-(4-(methylsulfonyl)piperidin-1-yl)ethyl)amino)-1-(prop-1-en-2-yl)-2,3,3a,4,5,5a,5b,6,7,7a,8,11,11a,11b,12,13,13a,13b-octadecahydro-1H-cyclopenta[a]chrysen-9-yl)cyclohex-3-enecarboxylic acid]
EC50 [1, 5]: 0.00293 µM
EC50 [2, 11]: 0.00175 µM
EC50 [3, 12]: 0.123 µM

C=C(C)[C@@H]1CC[C@]2(NCCC3(O)COC3)CC[C@]3(C)[C@H](CC[C@@H]4[C@@]5(C)CC=C(C6=CC[C@@](CF)(C(=O)O)CC6)C(C)(C)[C@@H]5CC[C@]43C)[C@@H]12 [Example 2-11, (R)-1-(fluoromethyl)-4-((1R,3aS,5aR,5bR,7aR,11aS,11bR,13aR,13bR)-3a-((2-(3-hydroxyoxetan-3-yl)ethyl)amino)-5a,5b, 8,8,11a-pentamethyl-1-(prop-1-en-2-yl)-2,3,3a,4,5,5a,5b,6,7,7a,8,11,11a,11b,12,13,13a,13b-octadecahydro-1H-cyclopenta[a]chrysen-9-yl)cyclohex-3-enecarboxylic acid]
EC50 [1, 5]: 0.0153 µM
EC50 [2, 6]: < 0.05 µM
EC50 [3, 7]: > 0.05 µM

C=C(C)[C@@H]1CC[C@]2(NCC[C@]3(O)CC[C@@H](S(C)(=O)=O)CC3)CC[C@]3(C)[C@H](CC[C@@H]4[C@@]5(C)CC=C(C6=CC[C@@](CF)(C(=O)O)CC6)C(C)(C)[C@@H]5CC[C@]43C)[C@@H]12 [Example 2-20, (R)-1-(fluoromethyl)-4-((1R,3aS,5aR,5bR,7aR,11aS,11bR,13aR,13bR)-3a-((2-((cis)-1-hydroxy-4-(methylsulfonyl)cyclohexyl)ethyl)amino)-5a,5b,8,8,11a-pentamethyl-1-(prop-1-en-2-yl)-2,3,3a,4,5,5a,5b,6,7,7a,8,11,11a,11 b,12,13,13a,13b-octadecahydro-1H-cyclopenta[a]chrysen-9-yl)cyclohex-3-enecarboxylic acid]
EC50 [1, 5]: < 0.05 µM
EC50 [2, 6]: < 0.05 µM
EC50 [3, 7]: > 0.05 µM
